Experimental data: PubChem BioAssay (NCI)
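Interpolation was linear, between the two tested concentrations surrounding the appropriate level; five concentrations were tested over 48 hours in 96-well plates. The concentration for 50% growth inhibition is given as GI50. TGI marks complete inhibition of growth.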

How the values were obtained:
Assay in all cases: growth of human tumour cells (NCI), 48 h
[1] = system: 786-0 renal
[2] = system: A498 renal
[3] = system: A549 NSCLC
[4] = system: ACHN renal
[5] = system: BT-549 breast
[6] = system: CAKI-1 renal
[7] = system: CCRF-CEM leukemia
[8] = system: COLO 205 colon
[9] = system: DU-145 prostate
[10] = system: EKVX NSCLC
[11] = system: HCC-2998 colon
[12] = system: HCT-116 colon
[13] = system: HCT-15 colon
[14] = system: HL-60(TB) leukemia
[15] = system: HOP-62 NSCLC
[16] = system: HOP-92 NSCLC
[17] = system: HS 578T breast
[18] = system: HT29 colon
[19] = system: IGROV1 ovarian
[20] = system: K-562 leukemia
[21] = system: KM12 colon
[22] = system: LOX IMVI melanoma
[23] = system: M14 melanoma
[24] = system: MALME-3M melanoma
[25] = system: MCF7 breast
[26] = system: MDA-MB-231 breast
[27] = system: MDA-MB-435
[28] = system: MDA-MB-468 breast
[29] = system: MOLT-4 leukemia
[30] = system: NCI-H226 lung
[31] = system: NCI-H23 lung
[32] = system: NCI-H460 lung
[33] = system: NCI-H522 lung
[34] = system: NCI/ADR-RES ovarian
[35] = system: OVCAR-3 ovarian
[36] = system: OVCAR-4 ovarian
[37] = system: OVCAR-5 ovarian
[38] = system: OVCAR-8 ovarian
[39] = system: PC-3 prostate
[40] = system: RPMI-8226 leukemia
[41] = system: RXF 393 renal
[42] = system: SF-268 CNS
[43] = system: SF-295 CNS
[44] = system: SF-539 CNS
[45] = system: SK-MEL-2 melanoma
[46] = system: SK-MEL-28 melanoma
[47] = system: SK-MEL-5 melanoma
[48] = system: SK-OV-3 ovarian
[49] = system: SN12C renal
[50] = system: SNB-19 CNS
[51] = system: SNB-75 CNS
[52] = system: SR leukemia
[53] = system: SW-620 colon
[54] = system: T-47D breast
[55] = system: TK-10 renal
[56] = system: U251 CNS
[57] = system: UACC-257 melanoma
[58] = system: UACC-62 melanoma
[59] = system: UO-31 renal

Question: How did the GI50 [1] turn out when `COc1ccc(C2(SCCNCc3cc(N(C)C)ccn3)c3ccccc3C=Cc3ccccc32)cc1` was run?
Answer: 873 nM

Question: And the TGI [1]?
Answer: 17200 nM

Question: And the GI50 [2]?
Answer: 11500 nM

Question: What about the TGI [2] of the same compound?
Answer: 24900 nM

Question: What about the GI50 [3] of the same compound?
Answer: 147 nM

Question: What about the TGI [3] of the same compound?
Answer: 16800 nM

Question: And the GI50 [4]?
Answer: 1900 nM

Question: What about the TGI [4] of the same compound?
Answer: 19900 nM

Question: And the GI50 [5]?
Answer: 471 nM

Question: What about the TGI [5] of the same compound?
Answer: 9580 nM

Question: What about the GI50 [6] of the same compound?
Answer: 1330 nM

Question: What about the TGI [6] of the same compound?
Answer: 19200 nM

Question: What about the GI50 [7] of the same compound?
Answer: 106 nM

Question: What about the TGI [7] of the same compound?
Answer: 19300 nM

Question: What about the GI50 [8] of the same compound?
Answer: 169 nM

Question: What about the TGI [8] of the same compound?
Answer: 521 nM

Question: And the GI50 [9]?
Answer: 335 nM

Question: And the TGI [9]?
Answer: 3630 nM

Question: And the GI50 [10]?
Answer: 382 nM

Question: What about the TGI [10] of the same compound?
Answer: 19400 nM

Question: And the GI50 [11]?
Answer: 93.2 nM

Question: What about the TGI [11] of the same compound?
Answer: 527 nM

Question: What about the GI50 [12] of the same compound?
Answer: 40.4 nM

Question: And the TGI [12]?
Answer: 11600 nM

Question: And the GI50 [13]?
Answer: 51 nM

Question: And the TGI [13]?
Answer: 13500 nM

Question: And the GI50 [14]?
Answer: 62.3 nM

Question: What about the TGI [14] of the same compound?
Answer: 13700 nM

Question: And the GI50 [15]?
Answer: 528 nM

Question: What about the TGI [15] of the same compound?
Answer: 17900 nM

Question: And the GI50 [16]?
Answer: 1310 nM

Question: What about the TGI [16] of the same compound?
Answer: 6250 nM

Question: And the GI50 [17]?
Answer: 204 nM

Question: What about the TGI [17] of the same compound?
Answer: 1770 nM

Question: And the GI50 [18]?
Answer: 337 nM

Question: And the TGI [18]?
Answer: 7000 nM

Question: And the GI50 [19]?
Answer: 459 nM

Question: What about the TGI [19] of the same compound?
Answer: 19200 nM

Question: What about the GI50 [20] of the same compound?
Answer: 40.7 nM

Question: What about the TGI [20] of the same compound?
Answer: 17400 nM

Question: What about the GI50 [21] of the same compound?
Answer: 322 nM

Question: What about the TGI [21] of the same compound?
Answer: 11700 nM

Question: What about the GI50 [22] of the same compound?
Answer: 557 nM

Question: And the TGI [22]?
Answer: 12300 nM

Question: What about the GI50 [23] of the same compound?
Answer: 34.7 nM

Question: And the TGI [23]?
Answer: 621 nM

Question: And the GI50 [24]?
Answer: 514 nM

Question: And the TGI [24]?
Answer: 15800 nM

Question: What about the GI50 [25] of the same compound?
Answer: 40 nM

Question: What about the TGI [25] of the same compound?
Answer: 13200 nM

Question: And the GI50 [26]?
Answer: 143 nM

Question: And the TGI [26]?
Answer: 446 nM

Question: And the GI50 [27]?
Answer: 25.3 nM

Question: And the TGI [27]?
Answer: 63.9 nM

Question: And the GI50 [28]?
Answer: 50.9 nM

Question: What about the TGI [28] of the same compound?
Answer: 388 nM

Question: And the GI50 [29]?
Answer: 610 nM

Question: And the TGI [29]?
Answer: 12000 nM

Question: And the GI50 [30]?
Answer: 4800 nM

Question: And the TGI [30]?
Answer: 19200 nM

Question: And the GI50 [31]?
Answer: 463 nM

Question: And the TGI [31]?
Answer: 13900 nM

Question: What about the GI50 [32] of the same compound?
Answer: 281 nM

Question: And the TGI [32]?
Answer: 11200 nM

Question: What about the GI50 [33] of the same compound?
Answer: 90 nM

Question: And the TGI [33]?
Answer: 455 nM

Question: And the GI50 [34]?
Answer: 205 nM

Question: And the TGI [34]?
Answer: 513 nM

Question: And the GI50 [35]?
Answer: 342 nM

Question: What about the TGI [35] of the same compound?
Answer: 12000 nM

Question: And the GI50 [36]?
Answer: 5150 nM

Question: And the TGI [36]?
Answer: 22000 nM

Question: What about the GI50 [37] of the same compound?
Answer: 364 nM

Question: What about the TGI [37] of the same compound?
Answer: 12500 nM

Question: What about the GI50 [38] of the same compound?
Answer: 238 nM

Question: What about the TGI [38] of the same compound?
Answer: 15700 nM

Question: And the GI50 [39]?
Answer: 395 nM

Question: And the TGI [39]?
Answer: 6060 nM

Question: And the GI50 [40]?
Answer: 124 nM

Question: What about the TGI [40] of the same compound?
Answer: > 49000 nM

Question: What about the GI50 [41] of the same compound?
Answer: 283 nM

Question: What about the TGI [41] of the same compound?
Answer: 3390 nM

Question: What about the GI50 [42] of the same compound?
Answer: 717 nM

Question: And the TGI [42]?
Answer: 18500 nM

Question: And the GI50 [43]?
Answer: 268 nM

Question: And the TGI [43]?
Answer: 14200 nM

Question: And the GI50 [44]?
Answer: 227 nM

Question: What about the TGI [44] of the same compound?
Answer: 594 nM

Question: And the GI50 [45]?
Answer: 252 nM

Question: What about the TGI [45] of the same compound?
Answer: 724 nM

Question: And the GI50 [46]?
Answer: 5290 nM

Question: What about the TGI [46] of the same compound?
Answer: 21200 nM

Question: And the GI50 [47]?
Answer: 319 nM

Question: And the TGI [47]?
Answer: 11800 nM

Question: And the GI50 [48]?
Answer: 497 nM

Question: And the TGI [48]?
Answer: 13900 nM

Question: And the GI50 [49]?
Answer: 290 nM

Question: And the TGI [49]?
Answer: 15200 nM

Question: What about the GI50 [50] of the same compound?
Answer: 534 nM

Question: What about the TGI [50] of the same compound?
Answer: 19100 nM

Question: What about the GI50 [51] of the same compound?
Answer: 176 nM

Question: And the TGI [51]?
Answer: 907 nM

Question: What about the GI50 [52] of the same compound?
Answer: 57 nM

Question: What about the TGI [52] of the same compound?
Answer: > 33200 nM

Question: What about the GI50 [53] of the same compound?
Answer: 74.6 nM

Question: What about the TGI [53] of the same compound?
Answer: 12500 nM

Question: What about the GI50 [54] of the same compound?
Answer: 475 nM

Question: What about the TGI [54] of the same compound?
Answer: 18700 nM

Question: What about the GI50 [55] of the same compound?
Answer: 12100 nM

Question: What about the TGI [55] of the same compound?
Answer: 25800 nM

Question: What about the GI50 [56] of the same compound?
Answer: 62 nM

Question: What about the TGI [56] of the same compound?
Answer: 12100 nM

Question: And the GI50 [57]?
Answer: 10800 nM

Question: What about the TGI [57] of the same compound?
Answer: 23900 nM

Question: What about the GI50 [58] of the same compound?
Answer: 460 nM

Question: And the TGI [58]?
Answer: 17700 nM

Question: And the GI50 [59]?
Answer: 1760 nM

Question: What about the TGI [59] of the same compound?
Answer: 17800 nM
